≈ marks a conversion by molar mass, not a printed value. Read-outs that look alike come from different tables or passages of the source. Numbered stars: 1 amine (or outer) side, 2 acyl side, 3 side chain; on linkers, the order of the positions; unused ones are H or OH. Bridge positions count the residues as written; N and C are the ends. Square brackets hold non-standard residues; d marks the D form. Peptide text beside a SMILES is read from it. * marks the point of attachment. Lys(Me,(CH2)4NMe(CH2)5CO) = CN(CCCCCC(=O)[*:3])CCCCN(C)CCCC[C@H](N[*:1])C(=O)[*:2]; Lys(Me,(CH2)4NMe(CH2)4CO) = CN(CCCCC(=O)[*:3])CCCCN(C)CCCC[C@H](N[*:1])C(=O)[*:2]; Trp(7-Me) = Cc1cccc2c(C[C@H](N)C(=O)O)c[nH]c12; Trp(1-Me) = Cn1cc(C[C@H](N)C(=O)O)c2ccccc21; αMeLys(Me2) = CN(C)CCCC[C@](C)(N)C(=O)O; 2Nal = N[C@@H](Cc1ccc2ccccc2c1)C(=O)O; 3Pal = N[C@@H](Cc1cccnc1)C(=O)O; Aun = NCCCCCCCCCCC(=O)O; Thp = NC1(C(=O)O)CCOCC1; Me2NCH2CH2 = CN(C)CC*; Aib = CC(C)(N)C(=O)O; Sar = CNCC(=O)O
Experiments:
[1] = Solubility of peptide compounds in buffer formulations (Table 5); format: physicochemical; details: target 1 mg/ml
How it was run: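 Peptide solids, dried from DMSO stock, were taken up at 1 mg/mL in 50 mM HCl pH 1.2, or 50 mM phosphate pH 6.5 or pH 7.4. After 2 h gentle agitation and filtration (0.45 μm), solubility was determined by UHPLC-UV peak area against a DMSO standard of known concentration.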

[2] = Chemical stability (relative purity loss) of peptide compounds in buffer formulations (Table 6); format: physicochemical; details: 2° C. and 37° C.
Description: Purity of a peptide batch was determined through UHPLC/MS method A prior to chemical stability measurement.
For stability assessment, the target concentration was 0.5 mg pure compound/ml. Therefore, solutions from solid samples were prepared in a buffer system at a concentration of 0.5 mg/mL compound. The solid samples were obtained by drying down aliquots of a freshly prepared acetonitrile stock solution using a THERMO SPEEDVAC vacuum centrifuge. The dry down time was 3 hours.
The following buffer systems were applied: • Solubility buffer system A): 50 mM HCl pH 1.2+Acetonitrile (3:1). • Solubility buffer system B): 50 mM phosphate buffer pH 6.5+Acetonitrile (3:1). • Solubility buffer system C): 50 mM phosphate buffer pH 7.4+Acetonitrile (3:1). • Prepared solutions were stored for 24 hours at 2° C. and 37° C.
After this time course, the samples were centrifuged for 15 min at 2500 RCF to create a 1:5 dilution of the supernatant. Then 2 μl of the dilution were analyzed with UHPLC-UV applying method A.
The chemical stability was rated through the relative loss of purity calculated by the equation: […]

[3] = Protease stability in simulated intestinal fluids (FaSSIF) (Table 7); format: in vitro ADME; details: fassif with pancreatin, 37° C.; for remaining at 1 h, 1 µM: 60 min, read-out: Remaining percentage of peptide compound, FaSSIF 60 (min); for remaining at 2 h, 1 µM: 120 min, read-out: Remaining percentage of peptide compound, FaSSIF 120 (min); for remaining at 4 h, 1 µM: 240 min, read-out: Remaining percentage of peptide compound, FaSSIF 240 (min)
How it was run: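 1 μM peptide incubated at 37° C in simulated fluid (pancreatin-SIF prepared from pancreatin in SIF concentrate). Samples quenched with acidified ethanol at 0, 60, 120 and 240 min and analysed by LC-MS/MS. Percentage remaining from peak area relative to T0 (100%).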

[4] = Protease stability in simulated gastric fluids (FaSSGF) (Table 7); format: in vitro ADME; details: fassgf with pepsin, 60 min, 37° C., read-out: Remaining percentage of peptide compound, FaSSGF 60 (min)
How it was run: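 Peptides at 1 μM final were incubated at 37 °C in simulated gastric fluid with pepsin (320 mg per 100 mL SGF concentrate). Samples were quenched with ethanol (0.1% HCOOH) at 0, 60, 120 and 240 min and analysed by LC-MS/MS. Percent remaining is the peak area relative to T0 (100%).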

[5] = tested on: IL-23 induced STAT3 signaling (IL-23 receptor) in HEK-Blue IL-23 cells; assay: Inhibition of IL-23 induced STAT3 signaling in HEK-Blue IL-23 cells, SEAP reporter (Table 9); format: cell-based; details: human IL23 0.25 ng/ml, overnight, read-out: Inhibition of IL-23 induced pSTAT3 (IC50 nM)
How it was run: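 HEK-Blue IL-23 reporter cells (10,000/well) pre-incubated 60 min at 37 °C with serially diluted peptides, then stimulated overnight with human IL-23 at 0.25 ng/ml final. SEAP in supernatant read by QUANTI-Blue, 45 min room temperature, OD 620–655 nm; dose-response curve fitting.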

[6] = Buffer pH 1.1 (head; method: 50 mM HCl pH 1.2), 2 h agitation, read-out: Solubility, Buffer pH 1.1
[7] = aqueous buffer, 50 mM phosphate buffer pH 6.5, 2 h agitation, read-out: Solubility, Buffer pH 6.5
[8] = aqueous buffer, 50 mM phosphate buffer pH 7.4, 2 h agitation, read-out: Solubility, Buffer pH 7.4
[9] = 50 mM phosphate buffer pH 6.5 + acetonitrile (3:1), read-out: Chemical stability (relative purity loss), Buffer pH 6.5
[10] = 50 mM phosphate buffer pH 7.4 + acetonitrile (3:1), read-out: Chemical stability (relative purity loss), Buffer pH 7.4
[11] = 50 mm hcl + acetonitrile, Buffer pH 1.1 (head; method: 50 mM HCl pH 1.2 + acetonitrile 3:1), read-out: Chemical stability (relative purity loss), Buffer pH 1.1

solubility at 2 h [1, 6] [µg/mL] | solubility at 2 h [1, 7] [µg/mL] | solubility at 2 h [1, 8] [µg/mL] | degraded at 24 h [2, 9] [%] | degraded at 24 h [2, 10] [%] | degraded at 24 h [2, 11] [%] | remaining at 1 h, 1 µM [3] [%] | remaining at 2 h, 1 µM [3] [%] | remaining at 4 h, 1 µM [3] [%] | remaining at 1 h, 1 µM [4] [%] | SMILES | IC50 [5] [nM]
≥ 970 | 850 (≈ 526 µM) | 830 (≈ 513 µM) | 0 | 0 | 3 | 96 | 95 | 90 | 99 | CC(=O)NCCCC[C@@H]1NC(=O)[C@H](Cc2c[nH]c3c(C)cccc23)NC(=O)CCCCN(C)CCCCN(C)CCCC[C@@H](C(=O)NCC(=O)N[C@@H](Cc2cccnc2)C(=O)N(C)CC(N)=O)NC(=O)C(C)(C)NC(=O)[C@H](Cc2ccc3ccccc3c2)NC(=O)[C@H](Cc2ccc(OCCN(C)C)cc2)NC(=O)C2(CCOCC2)NC1=O [compound 29] ([Trp(7-Me)]K(Ac)[Thp]Y(Me2NCH2CH2)[2Nal][Aib][Lys(Me,(CH2)4NMe(CH2)4CO)]G[3Pal][Sar]-NH2; lactam N-7) | 2.75
≥ 940 | ≥ 890 | 840 (≈ 533 µM) | 0 | 0 | 6.2 | 88 | 87 | 82 | 98 | CN(C)CCOc1ccc(C[C@@H]2NC(=O)C3(CCOCC3)NC(=O)[C@H](CCC(N)=O)NC(=O)[C@H](Cc3cn(C)c4ccccc34)NC(=O)CCCCN(C)CCCCN(C)CCCC[C@@H](C(=O)NCC(=O)N[C@@H](Cc3cccnc3)C(=O)N(C)CC(N)=O)NC(=O)C(C)(C)NC(=O)[C@H](Cc3ccc4ccccc4c3)NC2=O)cc1 [compound 30] ([Trp(1-Me)]Q[Thp]Y(Me2NCH2CH2)[2Nal][Aib][Lys(Me,(CH2)4NMe(CH2)4CO)]G[3Pal][Sar]-NH2; lactam N-7) | 3.86
≥ 1020 | ≥ 1220 | ≥ 1090 | 0 | 0 | 6 | 93 | 91 | 90 | 100 | Cc1cccc2c(C[C@@H]3NC(=O)CCCCCN(C)CCCCN(C)CCCC[C@@H](C(=O)N[C@@H](CC(N)=O)C(=O)N[C@@H](Cc4cccnc4)C(=O)N(C)CC(N)=O)NC(=O)C(C)(C)NC(=O)[C@H](Cc4ccc5ccccc5c4)NC(=O)[C@H](Cc4ccc(OCCN(C)C)cc4)NC(=O)C4(CCOCC4)NC(=O)[C@H](CCC(N)=O)NC3=O)c[nH]c12 [compound 31] ([Trp(7-Me)]Q[Thp]Y(Me2NCH2CH2)[2Nal][Aib][Lys(Me,(CH2)4NMe(CH2)5CO)]N[3Pal][Sar]-NH2; lactam N-7) | 0.71
≥ 950 | ≥ 1080 | ≥ 1120 | 0 | 0.5 | 3.6 | 96 | 93 | 84 | 97 | CC(=O)NCCCC[C@@H]1NC(=O)[C@H](Cc2c[nH]c3c(C)cccc23)NC(=O)CCCCN(C)CCCCN(C)CCCC[C@@H](C(=O)N[C@@H](CC(N)=O)C(=O)N[C@@H](Cc2cccnc2)C(=O)N(C)CC(N)=O)NC(=O)C(C)(C)NC(=O)[C@H](Cc2ccc3ccccc3c2)NC(=O)[C@H](Cc2ccc(OCCN(C)C)cc2)NC(=O)C2(CCOCC2)NC1=O [compound 32] ([Trp(7-Me)]K(Ac)[Thp]Y(Me2NCH2CH2)[2Nal][Aib][Lys(Me,(CH2)4NMe(CH2)4CO)]N[3Pal][Sar]-NH2; lactam N-7) | 0.53
≥ 1200 | ≥ 1120 | ≥ 1120 | 0 | 0 | 0 | 98 | 98 | 100 | 94 | CC(=O)NCCCC[C@@H]1NC(=O)[C@H](Cc2c[nH]c3c(C)cccc23)NC(=O)CCCCCN(C)CCCCN(C)CCCC[C@@H](C(=O)N[C@@H](CC(N)=O)C(=O)N[C@@H](Cc2cccnc2)C(=O)N(C)CC(N)=O)NC(=O)[C@](C)(CCCCN(C)C)NC(=O)[C@H](Cc2ccc3ccccc3c2)NC(=O)[C@H](Cc2ccc(OCCN(C)C)cc2)NC(=O)C2(CCOCC2)NC1=O [compound 34] ([Trp(7-Me)]K(Ac)[Thp]Y(Me2NCH2CH2)[2Nal][αMeLys(Me2)][Lys(Me,(CH2)4NMe(CH2)5CO)]N[3Pal][Sar]-NH2; lactam N-7) | 1.34
≥ 870 | 80 (≈ 50.8 µM) | 40 (≈ 25.4 µM) | 0 | 0 | 7.4 | 89 | 88 | 87 | 86 | Cc1cccc2c(C[C@@H]3NC(=O)CCCCCCCCCCNC(=O)CC[C@@H](C(=O)N[C@@H](CC(N)=O)C(=O)N[C@@H](Cc4cccnc4)C(=O)N(C)CC(N)=O)NC(=O)C(C)(C)NC(=O)[C@H](Cc4ccc5ccccc5c4)NC(=O)[C@H](Cc4ccc(OCCN(C)C)cc4)NC(=O)C(C)(C)NC(=O)[C@H](CCC(N)=O)NC3=O)c[nH]c12 [compound 35] ([Aun][Trp(7-Me)]Q[Aib]Y(Me2NCH2CH2)[2Nal][Aib]EN[3Pal][Sar]-NH2; lactam N-8) | 0.6
≥ 980 | ≥ 1070 | ≥ 1060 | 0 | 0 | 5.7 | 97 | 93 | 92 | 100 | CN(C)CCOc1ccc(C[C@@H]2NC(=O)C3(CCOCC3)NC(=O)[C@H](CCC(N)=O)NC(=O)[C@H](Cc3cn(C)c4ccccc34)NC(=O)CCCCN(C)CCCCN(C)CCCC[C@@H](C(=O)N[C@@H](CO)C(=O)N[C@@H](Cc3cccnc3)C(=O)N(C)CC(N)=O)NC(=O)C(C)(C)NC(=O)[C@H](Cc3ccc4ccccc4c3)NC2=O)cc1 [compound 40] ([Trp(1-Me)]Q[Thp]Y(Me2NCH2CH2)[2Nal][Aib][Lys(Me,(CH2)4NMe(CH2)4CO)]S[3Pal][Sar]-NH2; lactam N-7) | 2.26
≥ 1020 | ≥ 960 | ≥ 1020 | 0 | 0.4 | 5.8 | 93 | 93 | 81 | 95 | CN(C)CCOc1ccc(C[C@@H]2NC(=O)C3(CCOCC3)NC(=O)[C@H](CCC(N)=O)NC(=O)[C@H](Cc3c[nH]c4ccccc34)NC(=O)CCCCN(C)CCCCN(C)CCCC[C@@H](C(=O)N[C@@H](CO)C(=O)N[C@@H](Cc3cccnc3)C(=O)N(C)CC(N)=O)NC(=O)C(C)(C)NC(=O)[C@H](Cc3ccc4ccccc4c3)NC2=O)cc1 [compound 41] (WQ[Thp]Y(Me2NCH2CH2)[2Nal][Aib][Lys(Me,(CH2)4NMe(CH2)4CO)]S[3Pal][Sar]-NH2; lactam N-7) | 4

Source: patent publication US20260297129A1, “PEPTIDES AS SELECTIVE IL-23 RECEPTOR INHIBITORS” (SANOFI, priority 2023, published 2026)
